Reference: ChEMBL document CHEMBL1142409, “Synthetic ligands that activate and inhibit a quorum-sensing regulator in Pseudomonas aeruginosa” (Bioorg Med Chem Lett, 2008)

Key:
[1] = molecular target: T1, Transcriptional activator protein LasR (Pseudomonas aeruginosa (strain ATCC 15692 / PAO1 / 1C / PRS 101 / LMG12228)) (UniProt P25084); assay: Inhibition of Pseudomonas aeruginosa LasR; set-up: concentration or dose not given beside the values; conditions: concentration not given here
T1 sequence (whole entry): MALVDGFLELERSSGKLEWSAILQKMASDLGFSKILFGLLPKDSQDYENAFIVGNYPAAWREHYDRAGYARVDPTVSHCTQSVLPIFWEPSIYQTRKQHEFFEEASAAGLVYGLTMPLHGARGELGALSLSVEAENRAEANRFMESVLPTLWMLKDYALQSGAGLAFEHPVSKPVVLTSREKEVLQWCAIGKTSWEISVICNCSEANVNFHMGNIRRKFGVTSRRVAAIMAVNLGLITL

[2] = molecular target: T2, PhzR (Pseudomonas aeruginosa) (UniProt Q9RMS5); assay: Antagonist activity at Pseudomonas aeruginosa QscR expressed in Escherichia coli assessed as inhibition of dodecanoyl homoserine lactone induced production of beta-galactosidase at 5 uM; type: functional
T2 sequence (whole entry): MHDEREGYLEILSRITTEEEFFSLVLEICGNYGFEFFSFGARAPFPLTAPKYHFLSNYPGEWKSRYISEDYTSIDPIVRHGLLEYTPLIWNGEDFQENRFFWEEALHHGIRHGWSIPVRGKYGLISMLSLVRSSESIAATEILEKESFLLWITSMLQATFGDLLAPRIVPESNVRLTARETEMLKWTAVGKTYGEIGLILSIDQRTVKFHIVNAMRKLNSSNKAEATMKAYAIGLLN

[3] = molecular target: T3, (Pseudomonas aeruginosa) (UniProt Q9RMS5); assay: Agonist activity at Pseudomonas aeruginosa QscR expressed in Escherichia coli assessed as production of beta-galactosidase at 5 uM relative to dodecanoyl homoserine lactone; type: functional
T3 sequence (whole entry): T2 sequence (whole entry)

[4] = molecular target: QscR (Pseudomonas aeruginosa); assay: Antagonist activity at Pseudomonas aeruginosa QscR expressed in Escherichia coli assessed as inhibition of dodecanoyl homoserine lactone induced production of beta-galactosidase
[5] = molecular target: T2, PhzR (Pseudomonas aeruginosa); assay: Inhibition of binding of Pseudomonas aeruginosa QscR to DNA at 200 uM in presence of 3-oxo-dodecanoyl -L-homoserine lactone by electromobility shift assay

SMILES	inhibition [1]	inhibition [2]	Activity [3]	IC50 [4]	inhibition [5]
O=C(Cc1cccc(Cl)c1)N[C@H]1CCOC1=O	50%	73%	–	–	–
CCCCCCCCCC(=O)N[C@H]1CCOC1=O	–	–	104%	–	–
CCCCCCCCCC(=O)CC(=O)N[C@H]1CCOC1=O	–	–	109%	–	–
O=C(Cc1cccc(I)c1)N[C@H]1CCOC1=O	50%	70%	–	–	–
CCOc1ccc(CC(=O)N[C@H]2CCOC2=O)cc1	–	75%	–	160 nM	82%
O=C(N[C@H]1CCOC1=O)c1ccc(Br)cc1	–	78%	–	180 nM	71%
CCCCCCCCCCCS(=O)(=O)N[C@H]1CCOC1=O	–	–	51%	–	–
CCCCCCCC(=O)N[C@H]1CCOC1=O	> 50%	–	59%	–	–
O=C(Cc1ccc(-c2ccccc2)cc1)N[C@H]1CCOC1=O	20%	88%	–	30 nM	100%
CCCCCCCCc1ccc(C(=O)N[C@H]2CCOC2=O)cc1	–	76%	–	–	100%
CCCCCCCCCCCC(=O)CC(=O)N[C@H]1CCOC1=O	–	–	78%	–	–
CC(C)(C)OC(=O)Nc1ccc(CC(=O)N[C@H]2CCOC2=O)cc1	–	–	61%	–	–
O=C(Cc1cccc([N+](=O)[O-])c1)N[C@H]1CCOC1=O	50%	71%	–	–	–
CCCc1ccc(C(=O)CCC(=O)N[C@H]2CCOC2=O)cc1	–	–	54%	–	–
O=C(CCc1ccc(Br)cc1)N[C@H]1CCOC1=O	> 50%	–	64%	–	–
O=C(CC(=O)N[C@@H]1CCOC1=O)Cc1ccccc1	–	–	59%	–	–
CC(C)(C)OC(=O)NCc1ccc(C(=O)N[C@H]2CCOC2=O)cc1	–	77%	–	200 nM	59%
O=C(Cc1cccc(Br)c1)N[C@H]1CCOC1=O	50%	71%	–	–	–
CCCCCC(=O)CC(=O)N[C@H]1CCOC1=O	> 50%	–	74%	–	–
